Assay results as given in patent US20150166667A1, “METHODS AND COMPOSITIONS FOR TREATING CANCER” (RAMOT AT TEL-AVIV UNIVERSITY LTD., priority 2012, published 2015).

Experiments:
p21 (WAF1/Cip1) = p21 (WAF1/Cip1) expression in Ha-Ras infected keratinocytes, Western blot; format: cell-based, mouse; conditions: control cells, TPA 100 nM for 24 hr, FIG. 10A
Experimental: Primary mouse keratinocytes derived from control and IR-KO mice were infected with Ha-Ras, and 24 hr later were treated with TPA [100 nM] or vehicle for 24 hr. Expression of p21 (WAF1/Cip1) was evaluated by Western blot analysis, using a polyclonal antibody. Localization of p21 in the cells was examined by staining for DAPI and p21 (WAF1/Cip1) and visualization using fluorescent microscopy.

[1] = system: primary keratinocytes and fibroblasts; experiment: 3D skin organotypic coculture, epidermal differentiation; format: cell-based, mice; conditions: for expression of K14 (marker of proliferating keratinocytes) / expression of the differentiation markers Keratin-1 and Loricrin: immunohistochemistry, 10^-6M insulin or 10^-7M IGF1, FIG. 3B
Experimental: Primary keratinocytes and fibroblasts were isolated from WT mice, and organotypic cocultures were plated. Immediately afterwards, 10^−6M insulin or 10^−7M IGF1 was added to the growth medium and maintained throughout the experiment. Coculture inserts were further processed; H&E staining of a tissue section is shown. The effects of insulin and IGF1 on differentiation of human keratinocytes were tested in a 3-dimensional organotypic skin co-culture. In this model system, primary murine or human keratinocytes were plated on top of a fibroblast-containing collagen gel dermal equivalent. Within a few days under proper growth conditions, the 3D-organotypic coculture became organized, mimicking the histological structure of the skin tissue in vivo, including the skin epidermal layers as well as keratin formation. By mimicking the natural tissue architecture, such conditions enable keratinocytes to recapitulate their tissue-specific differentiation program in vitro.

keratin 1 = experiment: Keratin 1 assembly in differentiating skin cells (insoluble fraction, Western blot); format: cell-based, mice; conditions: cells induced to differentiate in presence of insulin or IGF1; FIG. 19
Experimental: Primary skin cells were isolated from the SIRKO and IR (lox/lox) control mice and grown in culture. On day 3, the calcium concentration in the growth medium was raised from 0.05 mM to 0.12 mM to induce differentiation, and the culture was further maintained. On day 6, cells were harvested. To evaluate the effects of IR inactivation on the state of keratin filaments, cell lysates were fractionated into a Triton X-100-soluble fraction, containing the elementary keratin units, and a Triton-insoluble fraction, containing the mature keratin filaments. Western blot analysis was carried out on these fractions to estimate the amount of K1 present in each fraction, using Actin content as a loading control. […] A representative experiment of 4 repeats is depicted in the figures.

human HaCaT skin cells = experiment: In vitro scratch closure assay, HaCaT cells with IR inactivated by siRNA; format: cell-based; conditions: FIG. 6B
Experimental: (§1) Insulin and IGF1 treatment: Primary murine keratinocytes were grown for 6 days in culture. On the day of the experiment insulin (10^−6M) or IGF-1 (10^−7M) were added, after which a scratch was made by a micropipette tip (day 0). In some of the plates, proliferation was inhibited by adding 25 microgram/ml mitomycin C, 4 hours prior to culture wounding. In another set of experiments (E-F) insulin receptor was inactivated by siRNA in human HaCaT skin cells. The effects of insulin and IGF1 were measured as described above. In all experiments digital photos were taken at day 0 and 24 hours later (day 1), from which 20 randomly chosen photos were taken from each treatment group and further analyzed to determine the average remaining scratch width.
(§2) The effect of insulin on skin cell migration was assessed using an in vitro scratch closure assay. Keratinocytes were grown to confluency, were left untreated or were treated with insulin or IGF-1, in the absence (6A; top panel) or presence (6A; bottom panel) of mitomycin C. The cell layer was scratched by a tip, and the degree of closure was subsequently measured. The amount of migration of control cells in each group (with or without mitomycin C) was assigned the value 100%. The average of 4 separate experiments is depicted. […] Similar results were obtained in human HaCaT skin cells in which the insulin receptor was inactivated by siRNA.

[2] = system: primary murine keratinocytes; experiment: In vitro scratch closure assay, primary murine keratinocytes; format: cell-based
Experimental: as §1, §2

SCC Cal 27 cells = experiment: Proliferation of SCC Cal 27 cells by thymidine incorporation; format: cell-based, human; conditions: serum starved cells, 24 hours; FIG. 15C
Experimental: SCC Cal 27 cells were grown in culture to 70% confluency. The cells were serum starved for 24 hours after which a blocking anti IR antibody (Thermo Scientific; Insulin Receptor (α-Subunit) Ab-3 (Clone 47-9); Cat. #MS-633-PABX) was added at the concentrations indicated, with or without insulin as indicated, and the cells were incubated further for 24 hours.
Left, center, and right bars are insulin, 10 nM, and 20 nM respectively. […] In each case, results were normalized to control groups. The P values for 10 nM and 20 nM are as follows: control vs 10 nM Ab: p=8.616 E-5; control vs 20 nM Ab: p=1.745 E-5; control vs 10 nM Ab+insulin: p=0.00072; control vs 20 nM Ab+insulin: p=0.00558.

Molecule	levels of p21, a marker of cellular senescence (p21 (WAF1/Cip1))	expression of K14 (marker of proliferating keratinocytes) [1]	expression of the differentiation markers Keratin-1 and Loricrin [1]	assembly of K1 (keratin 1 in the insoluble fraction) (keratin 1)	epidermal differentiation by histological analysis ([1]; 10^-6M insulin or 10^-7M IGF1 in growth medium, FIG. 3A)	effect on scratch closure in IR-inactivated cells (human HaCaT skin cells)	effect on scratch closure in presence of mitomycin C ([2]; 25 microgram/ml mitomycin C 4 hours prior to wounding, FIG. 6A bottom)	scratch closure ([2]; insulin 10^-6M, IGF-1 10^-7M, 24 hours, absence of mitomycin C, FIG. 6A top)	SCC cancer cell proliferation with insulin alone (SCC Cal 27 cells)
CCCCCCCCCCCCCC(=O)O[C@@H]1[C@@H](C)[C@@]2(O)[C@@H](C=C(CO)C[C@]3(O)C(=O)C(C)=C[C@@H]23)[C@@H]2C(C)(C)[C@]12OC(C)=O [TPA, 12-O-tetradecanoylphorbol-13-acetate]	decreased levels of p21	–	–	–	–	–	–	–	–
IGF1	–	maintained abnormally in apical layers	delayed expression	opposite effect	–	–	–	–	–
insulin	–	more rapid disappearance	enhanced	enhanced assembly of K1	supported epidermal differentiation	eliminated by IR inactivation	not eliminated	facilitated scratch closure more than IGF	increased the proliferation
